These results are taken from BindingDB's records for doi:10.7270/Q2TX3CSC (Vanderbilt Screening Center for GPCRs, Ion Channels and …, 2009).

The structures appear in SMILES notation. pEC50: −log10 of the molar value.

The first experiment concerns the target T1, Solute carrier family 12 member 5 (Homo sapiens, UniProt Q9H2X9).
T1 sequence (Q9H2X9 whole entry): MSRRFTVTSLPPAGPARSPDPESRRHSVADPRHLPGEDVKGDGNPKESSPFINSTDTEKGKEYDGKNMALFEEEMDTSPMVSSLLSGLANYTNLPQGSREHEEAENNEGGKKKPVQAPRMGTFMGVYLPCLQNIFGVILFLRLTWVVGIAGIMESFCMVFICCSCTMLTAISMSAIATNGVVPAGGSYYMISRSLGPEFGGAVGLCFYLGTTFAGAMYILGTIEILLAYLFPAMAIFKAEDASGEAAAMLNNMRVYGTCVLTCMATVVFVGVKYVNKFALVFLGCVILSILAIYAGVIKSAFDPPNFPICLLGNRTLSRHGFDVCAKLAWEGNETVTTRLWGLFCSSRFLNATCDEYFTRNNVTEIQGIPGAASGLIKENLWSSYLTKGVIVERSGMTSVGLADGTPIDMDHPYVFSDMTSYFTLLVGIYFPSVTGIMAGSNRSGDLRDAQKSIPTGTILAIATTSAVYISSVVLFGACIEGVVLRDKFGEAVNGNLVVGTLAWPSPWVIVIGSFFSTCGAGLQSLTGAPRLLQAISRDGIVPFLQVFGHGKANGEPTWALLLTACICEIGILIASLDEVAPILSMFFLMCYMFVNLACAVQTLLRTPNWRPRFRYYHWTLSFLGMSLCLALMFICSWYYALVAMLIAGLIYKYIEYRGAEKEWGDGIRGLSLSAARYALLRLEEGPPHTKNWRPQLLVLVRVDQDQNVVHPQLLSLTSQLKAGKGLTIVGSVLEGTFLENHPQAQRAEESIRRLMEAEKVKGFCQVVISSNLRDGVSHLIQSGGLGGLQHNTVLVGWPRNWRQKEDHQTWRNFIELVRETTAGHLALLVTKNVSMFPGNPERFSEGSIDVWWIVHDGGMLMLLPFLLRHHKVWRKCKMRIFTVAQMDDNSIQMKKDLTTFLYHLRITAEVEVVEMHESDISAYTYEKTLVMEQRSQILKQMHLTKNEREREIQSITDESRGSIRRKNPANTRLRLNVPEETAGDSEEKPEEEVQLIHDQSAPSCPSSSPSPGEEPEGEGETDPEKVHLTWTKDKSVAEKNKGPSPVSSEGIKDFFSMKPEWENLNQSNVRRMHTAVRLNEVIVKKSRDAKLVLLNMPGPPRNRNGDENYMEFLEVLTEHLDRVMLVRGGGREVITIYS
Briefly: KCC2 modulator potency by thallium flux, dose response, cell-based, HEK293 KCC2, FluoZin-2 fluorescence (AID 1736).
Conditions: not given
As a reminder, the pEC50 is −log10 of the EC50, conventionally taken in molar units. A lower pEC50 goes with a high EC50. The compound `Cc1[nH]c2ccccc2c1SCC(=O)N1CCN(c2ccccc2)CC1` [2-[(2-methyl-1H-indol-3-yl)thio]-1-(4-phenyl-1-piperazinyl)ethanone] gave a pEC50 of 5.37.
With `O=C(O)CCc1cc(I)c(Oc2ccc(O)c(I)c2)c(I)c1` [3-[4-(4-hydroxy-3-iodophenoxy)-3,5-diiodophenyl]propanoic acid], the negative logarithm of the EC50 (pEC50) is 5.27.
Compound `O=C(O)/C=C/c1cn(Cc2ccccc2)nc1-c1ccccc1` [MLS000567315] showed a pEC50 of 5.42.
`O=S(=O)(NC1CCCC1)c1cccc(S(=O)(=O)N2CCC(n3nnc4ccccc43)CC2)c1` [3-(4-Benzotriazol-1-yl-piperidine-1-sulfonyl)-N-cyclopentyl-benzenesulfonamide] gave a negative-log EC50 (pEC50) of 5.31.
The same measure, in the same setting: next, `CCCCCC(=O)Cc1cc(O)cc2c1C(=O)Oc1cc(O)c(C(=O)O)c(CCCCC)c1O2` [3,8-Dihydroxy-11-oxo-1-(2-oxo-heptyl)-6-pentyl-11H-dibenzo[b,e][1,4]dioxepine-7-carboxylic acid]: 5.40; `O=C(NCc1cccnc1)c1ccc(COc2ccc(Cl)cc2Cl)o1` [5-[(2,4-dichlorophenoxy)methyl]-N-(3-pyridinylmethyl)-2-furancarboxamide]: 3.18.
Compound `Cc1ccc(Nc2nnc(SCC(=O)c3ccc(Br)s3)s2)c(C)c1` [1-(5-bromanylthiophen-2-yl)-2-[[5-[(2,4-dimethylphenyl)amino]-1,3,4-thiadiazol-2-yl]sulfanyl]ethanone] had a negative logarithm of the EC50 (pEC50) of 5.64.
Same read-out and setting: next, `COc1cc(C=NN(C)c2ccccc2)ccc1O`: 4.62; `Cc1ccc(S(=O)(=O)N(CCC(=O)O)Cc2ccc(Cl)cc2)cc1` [3-[(4-chlorobenzyl)-tosyl-amino]propionic acid]: 6.31.
With `O=C(CSc1ccccc1C(=O)NCc1ccccc1)NC12CC3CC(CC(C3)C1)C2`, the pEC50 is 5.04.
Compound `O=S(=O)(Nc1nc2ccccc2nc1N1CCN(c2ccccn2)CC1)c1ccc(Cl)cc1` [4-chloranyl-N-[3-(4-pyridin-2-ylpiperazin-1-yl)quinoxalin-2-yl]benzenesulfonamide] showed a pEC50 of 5.17.
Turning to `C=CCNc1oc(Cc2cccc3ccccc23)nc1C#N` [2-(1-naphthalenylmethyl)-5-(prop-2-enylamino)-4-oxazolecarbonitrile], the negative logarithm of the EC50 (pEC50) was 5.32.
The compound `Cc1ccc(/C=C2\SC(=S)N(/N=C/C3C=C([N+](=O)[O-])C=CC3=O)C2=O)o1` (stereo not given) [(5Z)-5-[(5-methylfuran-2-yl)methylidene]-3-[[(E)-(3-nitro-6-oxocyclohexa-2,4-dien-1-ylidene)methyl]amino]-2-sulfanylidene-1,3-thiazolidin-4-one] had a pEC50 of 4.93.
Turning to `COc1ccc(-n2cnnc2SCC(=O)Nc2cc(S(=O)(=O)N3CCCCC3)ccc2C)cc1` [2-[[4-(4-methoxyphenyl)-1,2,4-triazol-3-yl]sulfanyl]-N-(2-methyl-5-piperidin-1-ylsulfonyl-phenyl)ethanamide], the pEC50 is 4.82.
Compound `Cc1onc(C(=O)N2CCN(Cc3ccccc3)CC2)c1[N+](=O)[O-]` [(4-benzylpiperazin-1-yl)-(5-methyl-4-nitro-1,2-oxazol-3-yl)methanone] had a negative-log EC50 (pEC50) of 4.23. This pEC50 is 0.59 log units lower than that of the compound before.
For the compound `O=c1c2ccccc2c(-c2nnc(S)o2)nn1Cc1ccccc1` [2-(phenylmethyl)-4-(2-sulfanylidene-3H-1,3,4-oxadiazol-5-yl)-1-phthalazinone], the pEC50 was 5.53. This pEC50 lies 1.30 log units higher than the previous one.
As for `Cc1noc(/C=C/c2ccco2)c1S(=O)(=O)N1CCC(C(=O)N2CCc3ccccc3C2)CC1` [2-{[1-({5-[(E)-2-(2-furyl)vinyl]-3-methylisoxazol-4-yl}sulfonyl)piperidin-4-yl]carbonyl}-1,2,3,4-tetrahydroisoquinoline], the pEC50 was 5.39.
`COc1ccccc1-n1cnc2cc(NS(=O)(=O)c3ccccc3)ccc21` [MLS000032522]: the negative logarithm of the EC50 (pEC50) was 5.72.
Same read-out and setting: next, `O=C(NNc1nc(-c2ccccc2)cs1)c1cccs1` [MLS000858987]: 6.76; `Cc1ccc(C)c(NC(=O)CSc2nnc([C@@H](N)Cc3ccccc3)o2)c1` [2-[5-((S)-1-Amino-2-phenyl-ethyl)-[1,3,4]oxadiazol-2-ylsulfanyl]-N-(2,5-dimethyl-phenyl)-acetamide]: 5.26.
For the compound `COc1ccc(-c2cc(CNC(=O)CN(C)Cc3ccccc3)on2)cc1` [2-[benzyl(methyl)amino]-N-[[3-(4-methoxyphenyl)-1,2-oxazol-5-yl]methyl]acetamide], the pEC50 is 5.28.
`C=C(C)Cn1c(N2CCC(Cc3ccccc3)CC2)nc2c1c(=O)[nH]c(=O)n2C` [3-methyl-7-(2-methylprop-2-enyl)-8-[4-(phenylmethyl)-1-piperidinyl]purine-2,6-dione] showed a pEC50 of 4.69. This pEC50 lies 0.59 log units lower than the previous one.
Compound `c1ccc(-c2csc(N=NCc3ccco3)n2)cc1` [(2-furfurylideneamino)-(4-phenylthiazol-2-yl)amine] gave a pEC50 of 4.82.
In the case of `Cc1ccccc1-c1nc(C[S+]([O-])CC(=O)NCc2ccccc2)c(C)o1` (stereo not given) [2-[[5-methyl-2-(2-methylphenyl)-1,3-oxazol-4-yl]methylsulfinyl]-N-(phenylmethyl)ethanamide], the negative logarithm of the EC50 (pEC50) was 5.15.
Regarding `O=C1OC(c2ccc(O)cc2)(c2ccc(O)cc2)c2ccccc21`, the pEC50 is 5.64.
`COc1ccccc1N1CCN(C(=S)NC(=O)/C=C/c2ccccc2)CC1` [(E)-N-[4-(2-Methoxy-phenyl)-piperazine-1-carbothioyl]-3-phenyl-acrylamide]: the pEC50 was 4.70.
In turn, `Cc1ccc(-c2n[nH]c(=S)n2NC=CCc2ccccc2[N+](=O)[O-])cc1` showed a pEC50 of 5.79. Against the preceding compound, the pEC50 is 1.09 log units higher.
Turning to `CC(C)(C)NC(=O)C(c1ccncc1)N(Cc1ccco1)C(=O)c1ccc(-c2ccccc2)[nH]1` (stereo not given) [N-[2-(tert-butylamino)-2-oxo-1-pyridin-4-ylethyl]-N-(furan-2-ylmethyl)-5-phenyl-1H-pyrrole-2-carboxamide], the pEC50 is 5.15.

The experiment is the same for the next values; noted with them: inactive by the depositor's call.
Consider `O=C(CCCn1ncn2c(cc3occc32)c1=O)N1CCc2ccccc2C1` [3-[4-(3,4-dihydro-1H-isoquinolin-2-yl)-4-keto-butyl]furo[3,4]pyrrolo[3,5-c][1,2,4]triazin-4-one], for which the pEC50 was 4.35.
The same measure, in the same setting: next, `Cc1ccc(CN(C)C(=O)c2cc(COc3ccc(F)cc3Cl)on2)o1` [5-[(2-chloranyl-4-fluoranyl-phenoxy)methyl]-N-methyl-N-[(5-methylfuran-2-yl)methyl]-1,2-oxazole-3-carboxamide]: 4.05.
Compound `COc1cc(-c2nnc(CSc3nnc(Nc4ccc(C(C)C)cc4)s3)o2)cc(OC)c1OC` [MLS000391281] showed a pEC50 of 5.66. Compared with the last compound, the pEC50 is 1.61 log units higher.
`O=C(/C=C/c1ccccc1)Nc1scc(-c2ccccc2)c1C(=O)O` [2-[[(E)-1-oxo-3-phenylprop-2-enyl]amino]-4-phenyl-3-thiophenecarboxylic acid]: the negative-log EC50 (pEC50) is 6.87.
In turn, `O=C(NC(=S)Nc1ccc(-c2nc3ncccc3o2)cc1)c1ccccc1F` [2-fluoranyl-N-[[4-([1,3]oxazolo[4,5-b]pyridin-2-yl)phenyl]carbamothioyl]benzamide] gave a pEC50 of 5.74.
In the case of `COc1ccc(C(=O)NC(=S)N2CCN(c3ccc([N+](=O)[O-])cc3)CC2)cc1` [4-methoxy-N-[4-(4-nitrophenyl)piperazin-1-yl]carbothioyl-benzamide], the negative logarithm of the EC50 (pEC50) is 6.75.
The compound `Cc1ccc(Nc2nnc(SCC(=O)c3cc4ccccc4o3)s2)cc1C` [1-(1-benzofuran-2-yl)-2-[[5-(3,4-dimethylanilino)-1,3,4-thiadiazol-2-yl]sulfanyl]ethanone] had a pEC50 of 7.07.
Consider `CN(C)CCn1c(=S)[nH]c2ccc(Cl)cc2c1=O` [6-chloro-3-[2-(dimethylamino)ethyl]-2-thioxo-2,3-dihydroquinazolin-4(1H)-one], for which the negative-log EC50 (pEC50) was 4.17. This pEC50 lies 2.90 log units lower than the previous one.
Still for that read-out and setting: next, `COc1ccc(Nc2nnc(SCc3cc(=O)n4ccsc4n3)s2)cc1` [7-[[5-(4-methoxyanilino)-1,3,4-thiadiazol-2-yl]sulfanylmethyl]-[1,3]thiazolo[3,2-a]pyrimidin-5-one]: 2.05.
Turning to `S=c1[nH]nc(-c2cccc(Cl)c2)n1N=Cc1ccco1` [3-(3-chlorophenyl)-4-(furan-2-ylmethylideneamino)-1H-1,2,4-triazole-5-thione], the pEC50 was 4.22.
On the same count and under the same terms, next, `O=C(O)CC/C(=C\c1cccc(NC(=O)c2ccccc2Cl)c1)c1nc2ccccc2s1` [SMR000371789]: 5.32; `COc1ccc(C(=O)CSc2nnnn2Cc2ccccc2)cc1` [1-(4-methoxyphenyl)-2-[[1-(phenylmethyl)-1,2,3,4-tetrazol-5-yl]sulfanyl]ethanone]: 5.77.
